Experiment in data set [1]: not given
The source holds these as a separate data set.

Experiment in data set [2]: not given
The source holds these as a separate data set.

Data set [3] is described as follows: method code G, from Wang, L.; Li, H.; Wang, X.; Zhang, Z. (1993). Determination of aqueous solubilities and partition coefficients of substitutive ethylketone congeners by generator column. Huanjing Huaxue, 12(2)151-154.
Experiment in data set [4]: not given
This is another data set of the same source.

Experiment in data set [5]: not given
This is another data set of the same source.

The nature of data set [6]: method code SF-AS, from DOI: 10.1248/cpb.42.1084, PMID: 8069960.
Data set [7] is described as follows: method code SF, from Rodriguez, L.; Zecchi, V.; Tartarini, A. (1984). Partition rate of some nonsteroidal anti-inflammatory agents in a three-phase water/n-octanol/water system. Pharmaceutical Acta Helvetiae, 59(3)95-96. Conditions: pH 12.0.
Data set [8] is described as follows: method code SF-RC, from DOI: 10.1016/j.nucmedbio.2015.07.007, PMID: 26330158. Conditions: pH 7.4.
Data set [9] can be described thus: method code SF-HPLC, from DOI: 10.1897/08-203.1, PMID: 18702564.
Data set [10] is described as follows: method code SF-AS, from DOI: 10.1016/s0006-291x(75)80410-4, PMID: 1111518.
The nature of data set [11]: method code SF-RC, from DOI: 10.1016/j.nucmedbio.2011.12.002, PMID: 22321533.
Experiment in data set [12]: not given
This is another data set of the same source.

A short description of data set [13]: method code SF-AS, from DOI: 10.1016/s0026-895x(25)10375-1.
The nature of data set [14]: method code SF-AS, from Falk, M.; Luecke, L. (1989). Transport of substances through lipid membranes. 11. Effect of esterification on the dissociation and permeation of orotic acid. Pharmazie, 44(9)647. Conditions: pH 1.2.
Experiment in data set [15]: not given
This is another data set of the same source.

The conditions of data set [16]: pH 13.0.
Data set [17] in a line: method code SF-AS, from DOI: 10.1081/jlc-100101656.
Data set [18] can be described thus: method code SF-HPLC, from DOI: 10.1021/jm100498u, PMID: 20704351. The following applies: pH 7.4.
A short description of data set [19]: method code SF-HPLC, from DOI: 10.1023/a:1015823315983, PMID: 1475237. The following applies: pH 1.0.
Experiment in data set [20]: not given
This is another data set of the same source.

Data set [21] can be described thus: method code SF-AS, from Rainer, G.; Krüger, U.; Klemm, K. (1981). Synthesis and physico-chemical properties of lonazolac-Ca, a new antiphlogistic/antirheumatic agent. Arzneimittelforschung, 31(4)649-55.
The nature of data set [22]: method code RP-HPLC, from DOI: 10.1016/0043-1354(79)90252-5. The following applies: pH 7.0.
Experiment in data set [23]: not given
This is another data set of the same source.

The nature of data set [24]: method code SF, from You, R.; Wang, L.; Cong, L.; Wang, Q.; Cai, P.; Yuan, H. (2007). Physicochemical properties of oxymatrine-phospholipid complex. Pharmaceutical Journal of Chinese People's Liberation Army, …. The following applies: pH 7.5.
Data set [25] in a line: method code SF-AS, from PMID: 6540096. The following applies: pH 7.5.
Experiment in data set [26]: not given
The source holds these as a separate data set.

A short description of data set [27]: method code SF, from DOI: 10.1016/j.ecoenv.2008.09.011, PMID: 19560203.
The nature of data set [28]: method code SF-RC, from PMID: 3380859. Conditions: pH 1.0.
Experiment in data set [29]: not given
The source holds these as a separate data set.

Data set [30] is described as follows: from Comini, L.; Núñez Montoya, S.; Argüello, G.; Cabrera, J. (2006). Partition coefficient (log P) determination of anthraquinone derivatives isolated from Heterophyllaea pustulata Hook, f. (Rubiaceae). …. The following applies: pH 7.4.
The conditions of data set [31]: pH 7.5.
The nature of data set [32]: method code SF-HPLC, from DOI: 10.1016/0378-5173(90)90303-l. The following applies: pH 7.4.
Data set [33] in a line: method code SF, from Li, Y.; Sun, S.; Zheng, Y. (2012). Determination of partition coefficients of icariside-II and icaritin based on the HPLC retention time. Chinese Pharmaceutical Journal, 47, 122-126.
Data set [34] is described as follows: method code SF-AS, from PMID: 12408720. The following applies: pH 7.4.
A short description of data set [35]: method code SF-AS, from DOI: 10.1021/jm010817i, PMID: 11806714. Conditions: pH 7.4.
Experiment in data set [36]: not given
This is another data set of the same source.

The conditions of data set [37]: pH 7.4.
Experiment in data set [38]: not given
The source holds these as a separate data set.

Experiment in data set [39]: not given
The source holds these as a separate data set.

Experiment in data set [40]: not given
This is another data set of the same source.

Data set [41] is described as follows: method code SF-RC, from DOI: 10.1016/j.nucmedbio.2008.11.010, PMID: 19217534. The following applies: pH 7.4.
Experiment in data set [42]: not given
This is another data set of the same source.

Data set [43] is described as follows: method code SF-RC, from DOI: 10.1016/s0969-8051(03)00053-2. Conditions: pH 7.4.

By logP is commonly meant a log measure of how a compound divides between an organic and an aqueous phase. A low value points to lower lipophilicity. As for `Nc1cc2c3c(cccc3c1)-c1ccccc1-2`, the logP was 3.14. In [1], `O=[N+]([O-])c1cc(Cl)c(/N=N/c2ccc(N(CCO)CCO)cc2Cl)c(Cl)c1` displayed a logP of 3.9. For the compound `O=C(O)CCC(=O)c1ccc(-c2ccccc2)cc1`, the lipophilicity (logP) in data set [2] was 2.91. With `COc1ccc(C(=O)CSc2ccc(C)cc2)cc1`, in data set [3], the logP amounted to 2.47. The compound `N#Cc1ccc(OCC2CCN(C/C=C/I)CC2)cc1` gave a logP in data set [4] of 3.36. As for `c1cc(-c2cnc3c(-c4ccncc4)cnn3c2)ccn1`, the logP in data set [5] is 2.5. `COc1ccc(Nc2ccnc3cc(Cl)ccc23)cc1` came in with a logP in data set [6] of 4.94. For the compound `CCc1c(OC)cc(Cc2cnc(N)nc2N)cc1OC`, the logD in [7] was 2.72. In [8], `O=C1Nc2c(Cl)ccc(OCCF)c2C2(CCCCC2)N1` showed a logD of 2.9. Compound `CC(C)(c1ccc(O)cc1)c1ccc(O)cc1` had a logP in [9] of 3.41.

In turn, `C=CCN1CCN(C(=O)N=NC(=O)N2CCN(CC=C)CC2)CC1` had a log partition coefficient (logP) in [10] of 0.79.

`Cc1cn(C2CC(O)C(CO)S2)c(=O)n(Cc2cn(CCF)nn2)c1=O` (centres undefined) came in with a logP in data set [11] of -0.86.

For the compound `CC(CC(=O)O)(N=O)c1cc(Oc2ccc(C(F)(F)F)cc2Cl)ccc1[N+](=O)[O-]` (centres undefined), the logP in data set [12] turned out to be 4.3.

`CCN1CCC[C@H]1CNC(=O)c1c(OC)ccc(Br)c1OC`: in data set [13], the logP was determined as 2.1. Turning to `CCCCCCCCCCOC(=O)c1cc(=O)[nH]c(=O)[nH]1`, in data set [14], the logD stood at 2.85.

In the case of `COc1ccc2cc(CCC(C)=O)ccc2c1`, the log partition coefficient (logP) in data set [15] was 3.45. In turn, `C=CCOc1ccccc1OCC(O)CNC(C)C` (centres undefined) registered a logD in data set [16] of 2.25. On to `CCc1onc(C)c1NC1=CC(=O)C(=O)c2ccccc21`, for which the logP in data set [17] was determined as 2.14. On to `CCOC(=O)c1cncn1C(C)c1ccc(C2(C(F)(F)F)N=N2)cc1` (centres undefined), for which, in [18], the logD is 4.4. In turn, `C[C@H](CS)C(=O)N1C[C@@H](Sc2ccccc2)C[C@H]1C(=O)O` (relative stereo) gave a logD in data set [19] of 2.16. In turn, `C[C@]12N[C@H](Cc3ccccc31)c1ccccc12` returned a lipophilicity (logP) in [20] of 1.79.

`O=C(O)Cc1cn(-c2ccccc2)nc1-c1ccc(Cl)cc1` came in with a logP in data set [21] of 4.13.

In turn, `COc1ccc(C(c2ccc(OC)cc2)C(Cl)(Cl)Cl)cc1` came in with a logD in data set [22] of 3.82. Compound `CN(C)Cc1cc(I)ccc1Sc1ccc(Cl)cc1N` gave a lipophilicity (logP) in data set [23] of 3.31. For `O=C1CCC[C@@H]2[C@H]3CCC[N@+]4([O-])CCC[C@@H](CN12)[C@@H]34`, in data set [24], the logD is -0.86. In turn, `CCc1cc2c(s1)N(C)C(=O)CN=C2c1ccccc1Cl` had a logD in data set [25] of 3.35.

As to `CC(C)NCC(O)c1ccc2ccccc2c1` (centres undefined), the lipophilicity (logP) in data set [26] turned out to be 3. As to `CCOC(=O)C1=C[C@@H](OC(CC)CC)[C@H](NC(C)=O)[C@@H](N)C1`, the log partition coefficient (logP) in data set [27] turned out to be 1.21. In turn, `Cn1c(CCCC(=O)O)nc2cc(N(CCCl)CCCl)ccc21` showed a logD in data set [28] of 0.44. With `COc1cccc(N(C)C(=N)Nc2cc(SC)ccc2Cl)c1`, in data set [29], the logP was found to be 2.34. In turn, `COc1c(CO)c(O)cc2c1C(=O)c1ccccc1C2=O` showed a logD in data set [30] of 1.29.

Regarding `CCN1CCC[C@H]1CNC(=O)c1c(O)c(I)cc(OC)c1OC`, the logD in data set [31] was determined as 2.5. In data set [32], `CN(C)C(=O)COC(=O)c1cc(S(N)(=O)=O)c(Cl)cc1NCc1ccco1` displayed a logD of 1.18. With `COc1ccc(-c2coc3cc(O)ccc3c2=O)cc1`, the lipophilicity (logP) in [33] worked out at 3.32.

Turning to `Cc1ccc(C(=O)Cn2c3c(sc2=N)CCCC3)cc1`, the logD in [34] was determined as 1.49. In turn, `CCCC(=O)NCCC(=O)NCc1c(O)c(=O)cc(C)n1C` gave a logD in data set [35] of -0.7. With `c1cnc(N2CCN(Cc3ccc4c(c3)OCO4)CC2)nc1`, the logP in data set [36] came out at 2.84.

`O=C(Nc1ccnc(NC(=O)C2CC2)c1)c1c(Cl)cccc1Cl` yielded a logD in data set [37] of 3.4.

`Oc1ccc2ccccc2c1/N=N/c1ccccc1`: the log partition coefficient (logP) in data set [38] turned out to be 5.86.

Regarding `O=C1NC(=O)C2(CCCCCCCCCCC2)C(=O)N1`, the logP in data set [39] worked out at 3.51.

In the case of `COCCOc1ccccc1S(=O)(=O)NC(=O)Nc1nc(OC)nc(OC)n1`, the logP in data set [40] worked out at 1.71. `N#Cc1ccc(C(c2ccc(C#N)cc2)n2cncn2)cc1` displayed a logD in data set [41] of 1.84.

The compound `CCCCC(CC)CP(=O)(O)CC(CC)CCCC` (centres undefined) yielded a lipophilicity (logP) in data set [42] of 3.92. `CCCn1c(=O)c2[nH]c(C3CCCC3)nc2n(C/C=C/I)c1=O`: the logD in data set [43] was found to be 2.96.
